# Results reported in patent publication US6958142B2, “Nasal spray formulation and method” (Balance Pharmaceuticals, Inc., priority 2002, dated 2005).
# Several values for one entry are separate records, joined by “and”; a condition that tells them apart may be missing. Equal entries are not always repeated. Where two headings read alike, the source gives them in different places.
# Columns and labels:
# [1] = test system: heavy bleeding secondary to uterine leiomyomata; assay: Example 3: bleeding score from daily bleeding calendars; type: in vivo, human
# Method: (§2) The compound was administered using a commercially available nasal sprayer that delivered a 50 μL spray volume. The daily dose was administered by application of 50 μL to each nostril once per day, for a total daily volume of 100 μL. During the 12 week treatment period the patients kept daily bleeding calendars and underwent clinical assessments at scheduled intervals.
# (§3) A 12 week study was performed to establish an effective dose of deslorelin for controlling heavy bleeding secondary to uterine leiomyomata. Forty-one premenopausal women completed the study and are identified as Subject Nos. 1 through 41. The women were divided into test groups for treatment with intranasal deslorelin as follows:
# (§4) For one complete menstrual cycle prior to treatment, each woman completed a daily bleeding calendar. Eligible subjects were then treated with deslorelin at the assigned dosage once per day by intranasal application. During the 12 weeks of daily intranasal administration, each woman kept a daily bleeding calendar, completed quality of life questionnaires, and underwent clinical assessment and laboratory testing.
# [2] = test system: premenopausal women with uterine leiomyomata; assay: Example 3: uterine size (uterine volume from ultrasound); type: in vivo, human
# Method: as §2, §3, §4
# [3] = test system: bone mineral density of the lumbar spine; conditions: in vivo
# Text: Bone mineral density (BMD) of the lumbar spine was obtained by dual-energy X-ray absorptiometry (DEXA) prior to and after six months of drug treatment.
# [4] = test system: ovarian estrogen and progesterone production; assay: Example 3: serum hormone levels
# Method: In a first study, deslorelin was administered alone to determine an appropriate dose for treatment of an exemplary benign gynecological disorder, uterine leiomyomata (fibroids). More specifically, the dose appropriate to control the heavy bleeding secondary to uterine leiomyomata was determined. […] The compound was administered using a commercially available nasal sprayer that delivered a 50 μL spray volume. The daily dose was administered by application of 50 μL to each nostril once per day, for a total daily volume of 100 μL. During the 12 week treatment period the patients kept daily bleeding calendars and underwent clinical assessments at scheduled intervals. Clinical assessments included grading of nasal irritation (Table 5A), determination of uterine size (Table 5B), and serum hormone levels (Table 5C).
# Eligible subjects were then treated with deslorelin at the assigned dosage once per day by intranasal application. During the 12 weeks of daily intranasal administration, each woman kept a daily bleeding calendar, completed quality of life questionnaires, and underwent clinical assessment and laboratory testing. […] Clinical assessments included grading of nasal irritation (Table 5A), determination of uterine size (Table 5B), and serum hormone levels (Table 5C).
# [5] = test system: premenopausal females with uterine fibroids; assay: Example 8: reduction of bleeding into the normal range; type: in vivo, human; conditions: deslorelin 1 mg/day intranasal
# Method: (§1) Premenopausal females (n=265) with uterine fibroids were recruited for participation in a 12 month double blind study. The women were randomly assigned to treatment in one of the following five study arms: Deslorelin at a daily dose of 1 mg was administered intranasally using a conventional metered spray delivery device. The intranasal preparation was a 100 μL daily nasal spray containing 1.0 mg deslorelin. […] Women with uterine fibroids often experience very heavy bleeding (menorrhagia) and uterine enlargement leading to pelvic pain and pressure symptoms. Clinical benefit was assessed by measuring changes in bleeding score (percent of subjects with reduction of bleeding into the normal range) and uterine volume. Shown in Table 9A are the percent of subjects responding (reduction of bleeding into the normal range) after 3 and 6 months of treatment.
# [6] = test system: premenopausal females with uterine fibroids; assay: Example 8: change in uterine volume; type: in vivo, human; conditions: 6 Months of treatment compared to baseline
# Method: as §1
# [7] = Serum testosterone average concentration over 24 hours after intranasal testosterone
# Method: In another study, five women were treated with intranasal testosterone.
# physchem = conditions: aqueous with cosolvent or surfactant or cyclodextrin, thermodynamic from solid
# [8] = at 25° C.; cited from earlier work
# [9] = Deslorelin 0.5 mg/day, Baseline
# [10] = Deslorelin 0.5 mg/day, End of Week 4
# [11] = Deslorelin 0.5 mg/day, End of Week 8
# [12] = Deslorelin 0.5 mg/day, End of Week 12
# [13] = Deslorelin 1 mg/day, End of Week 4
# [14] = Deslorelin 1 mg/day, End of Week 8
# [15] = Deslorelin 1 mg/day, End of Week 12
# [16] = Deslorelin 2 mg/day, End of Week 4
# [17] = Deslorelin 2 mg/day, End of Week 8
# [18] = Deslorelin 2 mg/day, End of Week 12
smiles,measurement,setting,value
"CCNC(=O)[C@@H]1CCCN1C(=O)[C@H](CCCN=C(N)N)NC(=O)[C@H](CC(C)C)NC(=O)[C@@H](Cc1c[nH]c2ccccc12)NC(=O)[C@H](Cc1ccc(O)cc1)NC(=O)[C@H](CO)NC(=O)[C@H](Cc1c[nH]c2ccccc12)NC(=O)[C@H](Cc1cnc[nH]1)NC(=O)[C@@H]1CCC(=O)N1 [Deslorelin, (pyro)Pro-His-Trp-Ser-Tyr-DTrp-Leu-Arg-Pro-ethylamide]",Bleeding Score,"[1]; Deslorelin 0.5 mg/day, Baseline Score, 0 no bleeding, 5 normal flow, 10 or greater menorrhagia",10.9
same,Bleeding Score,"[1]; Deslorelin 0.5 mg/day, Weeks 1-4",6.6
same,Bleeding Score,"[1]; Deslorelin 0.5 mg/day, Weeks 5-8",3.5
same,Bleeding Score,"[1]; Deslorelin 0.5 mg/day, Weeks 9-12",2.6
same,Bleeding Score,"[1]; Deslorelin 1 mg/day, Baseline Score",10.8
same,Bleeding Score,"[1]; Deslorelin 1 mg/day, Weeks 1-4",7.8
same,Bleeding Score,"[1]; Deslorelin 1 mg/day, Weeks 5-8",0.4
same,Bleeding Score,"[1]; Deslorelin 1 mg/day, Weeks 9-12",1.7
same,Bleeding Score,"[1]; Deslorelin 2 mg/day, Baseline Score",14.1
same,Bleeding Score,"[1]; Deslorelin 2 mg/day, Weeks 1-4",6.6
same,Bleeding Score,"[1]; Deslorelin 2 mg/day, Weeks 5-8",1.2
same,Bleeding Score,"[1]; Deslorelin 2 mg/day, Weeks 9-12",0.6
same,effectiveness (in words),"[1]; all tested doses (0.5, 1.0, 2.0 mg/day)","partially or completely effective with reduction of bleeding, associated pain, and uterine size"
same,bleeding score (in words),[1]; end of the 12 week study,marked improvement in their bleeding score
same,uterine volume calculated from ultrasound determined dimensions (in words),"[2]; 0.5, 1.0, 2.0 mg/day, 12 weeks",reduction in uterine volume
same,Uterine Size Mean Difference (end of week 12 minus baseline uterine volume),[2]; Deslorelin 0.5 mg/day intranasal,−109.6 cm^3
same,Uterine Size Mean Difference (end of week 12 minus baseline uterine volume),[2]; Deslorelin 1 mg/day intranasal,−63.6 cm^3
same,Uterine Size Mean Difference (end of week 12 minus baseline uterine volume),[2]; Deslorelin 2 mg/day intranasal,−246.5 cm^3
same,Mean Ratio (BMD6 mo/BMDbaseline),[3],0.971
same,Hormone Levels: Estradiol,[4]; [9],173 pg/mL
same,Hormone Levels: Progesterone,[4]; [9],641 ng/dL
same,Hormone Levels: Testosterone,[4]; [9],24 ng/dL
same,Hormone Levels: Estradiol,[4]; [10],47 pg/mL
same,Hormone Levels: Progesterone,[4]; [10],40 ng/dL
same,Hormone Levels: Testosterone,[4]; [10],19 ng/dL
same,Hormone Levels: Estradiol,[4]; [11],79 pg/mL
same,Hormone Levels: Progesterone,[4]; [11],30 ng/dL
same,Hormone Levels: Testosterone,[4]; [11],22 ng/dL
same,Hormone Levels: Estradiol,[4]; [12],66 pg/mL
same,Hormone Levels: Progesterone,[4]; [12],37 ng/dL
same,Hormone Levels: Testosterone,[4]; [12],23 ng/dL
same,Hormone Levels: Estradiol,"[4]; Deslorelin 1 mg/day, Baseline",123 pg/mL
same,Hormone Levels: Progesterone,"[4]; Deslorelin 1 mg/day, Baseline",480 ng/dL
same,Hormone Levels: Testosterone,"[4]; Deslorelin 1 mg/day, Baseline",26 ng/dL
same,Hormone Levels: Estradiol,[4]; [13],51 pg/mL
same,Hormone Levels: Progesterone,[4]; [13],12 ng/dL
same,Hormone Levels: Testosterone,[4]; [13],22 ng/dL
same,Hormone Levels: Estradiol,[4]; [14],95 pg/mL
same,Hormone Levels: Progesterone,[4]; [14],25 ng/dL
same,Hormone Levels: Testosterone,[4]; [14],20 ng/dL
same,Hormone Levels: Estradiol,[4]; [15],30 pg/mL
same,Hormone Levels: Progesterone,[4]; [15],10 ng/dL
same,Hormone Levels: Testosterone,[4]; [15],16 ng/dL
same,Hormone Levels: Estradiol,"[4]; Deslorelin 2 mg/day, Baseline",184 pg/mL
same,Hormone Levels: Progesterone,"[4]; Deslorelin 2 mg/day, Baseline",337 ng/dL
same,Hormone Levels: Testosterone,"[4]; Deslorelin 2 mg/day, Baseline",34 ng/dL
same,Hormone Levels: Estradiol,[4]; [16],14 pg/mL
same,Hormone Levels: Progesterone,[4]; [16],12 ng/dL
same,Hormone Levels: Testosterone,[4]; [16],16 ng/dL
same,Hormone Levels: Estradiol,[4]; [17],31 pg/mL
same,Hormone Levels: Progesterone,[4]; [17],14 ng/dL
same,Hormone Levels: Testosterone,[4]; [17],20 ng/dL
same,Hormone Levels: Estradiol,[4]; [18],30 pg/mL
same,Hormone Levels: Progesterone,[4]; [18],13 ng/dL
same,Hormone Levels: Testosterone,[4]; [18],20 ng/dL
same,% with reduction of bleeding into the normal range,[5]; 3 Months,69%
same,% with reduction of bleeding into the normal range,[5]; 6 Months,92%
same,Proportion of Initial Volume (uterine volume),[6],0.675
"C[C@]12CC[C@H]3[C@@H](CCC4=CC(=O)CC[C@@]43C)[C@@H]1CC[C@@H]2O [Testosterone, testosterone]",Testosterone average concentration over 24 hours,"[7]; intranasal 250 μg testosterone in preparation with deslorelin and estradiol, Day 1, individual subjects",26.7 ng/dL (2×) and 19.0 ng/dL and 18.8 ng/dL and 19.1 ng/dL
same,Testosterone average concentration over 24 hours,"[7]; intranasal 250 μg testosterone in preparation with deslorelin and estradiol, Day 8, individual subjects",29.9 ng/dL and 17.1 ng/dL and 16.5 ng/dL and 16.2 ng/dL and 24.1 ng/dL
same,Testosterone average concentration over 24 hours,"[7]; intranasal 250 μg testosterone, average of both observations (Day 1, Day 8) in each of the 5 subjects",21.4 ng/dL
same,solubility,"physchem; Estradiol and Testosterone solubility, both steroids together in aqueous HPβCD 10 mg/mL",0.658 mg/mL
same,solubility,"physchem; Estradiol and Testosterone solubility, both steroids together in aqueous HPβCD 40 mg/mL",2.82 mg/mL
same,solubility,"physchem; Estradiol and Testosterone solubility, both steroids together in aqueous HPβCD 70 mg/mL",5.07 mg/mL
same,solubility,"physchem; Estradiol and Testosterone solubility, both steroids together in aqueous HPβCD 100 mg/mL",7.11 mg/mL
same,solubility,"physchem; Estradiol and Testosterone solubility, both steroids together in aqueous HPβCD 130 mg/mL",10.6 mg/mL
same,solubility,"physchem; Estradiol and Testosterone solubility, both steroids together in aqueous HPβCD 160 mg/mL",13.4 mg/mL
same,solubility,"physchem; Estradiol and Testosterone solubility, both steroids together in aqueous HPβCD 190 mg/mL",15.7 mg/mL
same,solubility,"physchem; Estradiol and Testosterone solubility, both steroids together in aqueous HPβCD 250 mg/mL",20 mg/mL
same,solubility,"physchem; solubility, steroid alone in aqueous HPβCD 10 mg/mL",0.81 mg/mL
same,solubility,"physchem; solubility, steroid alone in aqueous HPβCD 40 mg/mL",2.54 mg/mL
same,solubility,"physchem; solubility, steroid alone in aqueous HPβCD 70 mg/mL",5.63 mg/mL
same,solubility,"physchem; solubility, steroid alone in aqueous HPβCD 100 mg/mL",6.82 mg/mL
same,solubility,"physchem; solubility, steroid alone in aqueous HPβCD 130 mg/mL",11.6 mg/mL
same,solubility,"physchem; solubility, steroid alone in aqueous HPβCD 160 mg/mL",13.9 mg/mL
same,solubility,"physchem; solubility, steroid alone in aqueous HPβCD 190 mg/mL",16.5 mg/mL
same,solubility,"physchem; solubility, steroid alone in aqueous HPβCD 220 mg/mL",18.6 mg/mL
same,solubility,"physchem; solubility, steroid alone in aqueous HPβCD 250 mg/mL",21.7 mg/mL
same,Molar Ratio steroid/HPβCD,"both steroids together, HPβCD 10 mg/mL",0.31
same,Molar Ratio steroid/HPβCD,"both steroids together, HPβCD 40 mg/mL",0.34
same,Molar Ratio steroid/HPβCD,"both steroids together, HPβCD 70 mg/mL",0.35
same,Molar Ratio steroid/HPβCD,"both steroids together, HPβCD 100 mg/mL",0.34
same,Molar Ratio steroid/HPβCD,"both steroids together, HPβCD 130 mg/mL",0.39
same,Molar Ratio steroid/HPβCD,"both steroids together, HPβCD 160 mg/mL",0.40
same,Molar Ratio steroid/HPβCD,"both steroids together, HPβCD 190 mg/mL",0.40
same,Molar Ratio steroid/HPβCD,"both steroids together, HPβCD 250 mg/mL",0.38
same,Molar Ratio steroid/HPβCD,"steroid alone, HPβCD 10 mg/mL",0.39
same,Molar Ratio steroid/HPβCD,"steroid alone, HPβCD 40 mg/mL",0.30
same,Molar Ratio steroid/HPβCD,"steroid alone, HPβCD 70 mg/mL",0.38
same,Molar Ratio steroid/HPβCD,"steroid alone, HPβCD 100 mg/mL",0.33
same,Molar Ratio steroid/HPβCD,"steroid alone, HPβCD 130 mg/mL",0.43
same,Molar Ratio steroid/HPβCD,"steroid alone, HPβCD 160 mg/mL",0.41
same,Molar Ratio steroid/HPβCD,"steroid alone, HPβCD 190 mg/mL",0.42
same,Molar Ratio steroid/HPβCD,"steroid alone, HPβCD 220 mg/mL",0.40
same,Molar Ratio steroid/HPβCD,"steroid alone, HPβCD 250 mg/mL",0.41
OC[C@H]1O[C@@H]2O[C@H]3[C@H](O)[C@@H](O)[C@@H](O[C@H]4[C@H](O)[C@@H](O)[C@@H](O[C@H]5[C@H](O)[C@@H](O)[C@@H](O[C@H]6[C@H](O)[C@@H](O)[C@@H](O[C@H]7[C@H](O)[C@@H](O)[C@@H](O[C@H]8[C@H](O)[C@@H](O)[C@@H](O[C@H]9[C@H](O)[C@@H](O)[C@@H](O[C@H]%10[C@H](O)[C@@H](O)[C@@H](O[C@H]1[C@H](O)[C@H]2O)O[C@@H]%10CO)O[C@@H]9CO)O[C@@H]8CO)O[C@@H]7CO)O[C@@H]6CO)O[C@@H]5CO)O[C@@H]4CO)O[C@@H]3CO [δ-cyclodextrin],water solubility,[8],8.19 g/100 mL
